Source: US9353088B2, “Crystalline pharmaceutical and methods of preparation and use thereof” (SARcode Bioscience Inc., priority 2009, dated 2016)

Test: Dynamic Vapor Sorption (DVS) analysis
Type: physicochemical
Experimental: Dynamic Vapor Sorption (DVS) analysis was performed with a Surface Measurement Systems DVS-1 water vapor sorption analyzer. The experiments were run by placing the sample on a quartz holder on top of a microbalance, and allowing the sample to equilibrate at 50% relative humidity (r.h.) before starting the pre-defined humidity program. The program proceeded in the following steps: 1 hour at 50% r.h.; 50% to 0% r.h. at a rate of 5% r.h. change per hour; 5 hours at 0% r.h; 0% r.h to […]. at 5% r.h change per hour; 5 hours at 95% r.h.; 95% r.h. to 50% r.h. at a rate of 5% r.h. change per hour, and followed by one hour at 50% r.h.

CS(=O)(=O)c1cccc(C[C@H](NC(=O)c2c(Cl)cc3c(c2Cl)CCN(C(=O)c2ccc4ccoc4c2)C3)C(=O)O)c1 [Crystalline Form B]
hygroscopicity (DVS, 50 hours, 5 hours at 95% relative humidity): does not appear to be hygroscopic

CS(=O)(=O)c1cccc(C[C@H](NC(=O)c2c(Cl)cc3c(c2Cl)CCN(C(=O)c2ccc4ccoc4c2)C3)C(=O)O)c1 [Crystalline Form A]
water content by DVS (after mass loss at lowest relative humidity of 0.4%): 0.5 mole water per mole free acid | water content by DVS (at the start of the experiment): about 0.9 mole water per mole free acid | water content by DVS (mass gain at 95% relative humidity): 1.1 mole water per mole free acid
